Test results reported in patent US12258354B2, “AhR modulators” (IDEAYA BIOSCIENCES, INC., priority 2018, dated 2025).

Target: T1, hAhR (Homo sapiens, UniProt P35869)
T1 construct: Stably integrated DRE-luciferase cell lines were generated by transducing the both cell lines with Cignal XRE luciferase reporter; endogenous in cells; host or cells: HEPG2 DRE-Luc cells (only the XRE luciferase reporter was transduced)
T1 sequence (P35869 11-848): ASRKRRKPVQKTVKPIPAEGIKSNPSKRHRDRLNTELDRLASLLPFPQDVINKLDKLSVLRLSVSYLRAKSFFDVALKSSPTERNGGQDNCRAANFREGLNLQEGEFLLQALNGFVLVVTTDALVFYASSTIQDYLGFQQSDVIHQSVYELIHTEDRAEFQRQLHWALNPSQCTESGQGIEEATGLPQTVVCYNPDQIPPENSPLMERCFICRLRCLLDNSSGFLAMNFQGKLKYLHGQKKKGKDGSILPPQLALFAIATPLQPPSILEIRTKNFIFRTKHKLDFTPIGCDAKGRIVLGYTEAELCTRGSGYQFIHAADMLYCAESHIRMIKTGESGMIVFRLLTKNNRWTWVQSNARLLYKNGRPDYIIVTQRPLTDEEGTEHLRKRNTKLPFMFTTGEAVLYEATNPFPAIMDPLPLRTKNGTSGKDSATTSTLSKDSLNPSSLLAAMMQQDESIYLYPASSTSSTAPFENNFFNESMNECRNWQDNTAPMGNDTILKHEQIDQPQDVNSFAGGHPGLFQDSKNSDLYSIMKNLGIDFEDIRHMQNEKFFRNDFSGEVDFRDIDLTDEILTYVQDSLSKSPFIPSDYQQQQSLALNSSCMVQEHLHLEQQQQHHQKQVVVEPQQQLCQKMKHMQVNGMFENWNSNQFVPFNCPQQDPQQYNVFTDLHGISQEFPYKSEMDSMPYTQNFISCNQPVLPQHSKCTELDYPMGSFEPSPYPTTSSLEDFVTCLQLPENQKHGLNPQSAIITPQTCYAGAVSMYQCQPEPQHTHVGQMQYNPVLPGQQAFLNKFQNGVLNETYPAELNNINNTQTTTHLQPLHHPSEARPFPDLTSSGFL
Assay: DRE-luciferase transcriptional reporter assay in HEPG2 DRE-Luc cells, TCDD-induced (antagonist mode)
Assay type: cell-based
Conditions: relative IC50, 3 nM TCDD, 24-hour incubation, firefly luciferase readout
Outline: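 Stable DRE(XRE)-luciferase HEPG2 clone seeded in OptiMEM with 0.5% heat-inactivated FBS, then given a semi-log compound dilution plus TCDD at 3 nM final. After 24 h, cells were lysed and firefly luminescence read. Response was normalised between TCDD and vehicle, and relative IC50 was taken as half-reduction between the fitted curve plateaus.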

| Compound | IC50 [nM] |
| --- | --- |
| Cc1cc(-c2ncc3cc(C(F)(F)F)ccc3n2)ccc1N1CCOc2cn(CC(=O)O)nc2C1=O [compound 078, 2-(7-(2-methyl-4-(6-(trifluoromethyl)quinazolin-2-yl)phenyl)-8-oxo-5,6,7,8-tetrahydro-2H-pyrazolo[3,4-f][1,4]oxazepin-2-yl)acetic acid] | 1000 to 10000 |
| Cc1cc(-c2ncc3cc(C(F)(F)F)ccc3n2)ccc1N1CCn2ncc(CO)c2C1=O [compound 079, 3-(hydroxymethyl)-5-(2-methyl-4-(6-(trifluoromethyl)quinazolin-2-yl)phenyl)-6,7-dihydropyrazolo[1,5-a]pyrazin-4 (5H)-one] | < 200 |
| Cc1cc(-c2ncc3cc(C(F)(F)F)ccc3n2)ccc1N1CCn2nc(C(=O)N[C@H](C)CO)c(C)c2C1=O [compound 080, (R)-N-(1-hydroxypropan-2-yl)-3-methyl-5-(2-methyl-4-(6-(trifluoromethyl)-quinazolin-2-yl)phenyl)-4-oxo-4,5,6,7-tetrahydropyrazolo[1,5-a]pyrazine-2-carboxamide] | < 200 |
| Cc1cc(-c2ncc3cc(C(F)(F)F)ccc3n2)ccc1N1CCn2ncc(N[C@@H](C)CO)c2C1=O [compound 081, (S)-3-((1-hydroxypropan-2-yl)amino)-5-(2-methyl-4-(6-(trifluoromethyl)-quinazolin-2-yl)phenyl)-6,7-dihydropyrazolo[1,5-a]pyrazin-4 (5H)-one] | < 200 |
| Cc1cc(-c2ncc3nc(C(F)(F)F)ccc3n2)ccc1N1CCOc2c(CO)nn(C)c2C1=O [compound 082, 3-(hydroxymethyl)-1-methyl-7-(2-methyl-4-(6-(trifluoromethyl)-pyrido-[3,2-d]pyrimidin-2-yl)phenyl)-6,7-dihydro-1H-pyrazolo[3,4-f][1,4]oxazepin-8 (5H)-one] | < 200 |
| Cc1cc(-c2ncc3nc(C(F)(F)F)ccc3n2)ccc1N1CCOc2c(C(C)O)nn(C)c2C1=O (centres unmarked) [compound 083, 3-(1-hydroxyethyl)-1-methyl-7-(2-methyl-4-(6-(trifluoromethyl)-pyrido[3,2-d]pyrimidin-2-yl)phenyl)-6,7-dihydro-1H-pyrazolo[3,4-f][1,4]oxazepin-8 (5H)-one] | < 200 |
| Cc1cc(-c2ncc3nc(C(F)(F)F)ccc3n2)ccc1N1CCOc2c(C(C)(C)O)nn(C)c2C1=O [compound 084, 3-(2-hydroxypropan-2-yl)-1-methyl-7-(2-methyl-4-(6-(trifluoromethyl)pyrido[3,2-d]pyrimidin-2-yl)phenyl)-6,7-dihydro-1H-pyrazolo[3,4-f][1,4]oxazepin-8 (5H)-one] | < 200 |
| Cc1cc(-c2ncc3nc(C(F)(F)F)ccc3n2)ccc1N1CCOc2c(CN(C)C)nn(C)c2C1=O [compound 085, 3-((dimethylamino)methyl)-1-methyl-7-(2-methyl-4-(6-(trifluoromethyl)pyrido-[3,2-d]pyrimidin-2-yl)phenyl)-6,7-dihydro-1H-pyrazolo[3,4-f][1,4]oxazepin-8 (5H)-one] | < 200 |
| CCOC(=O)c1nn(C)c2c1OCCN(c1ccc(-c3ncc4nc(C(F)(F)F)ccc4n3)cc1C)C2=O [compound 086, ethyl 1-methyl-7-(2-methyl-4-(6-(trifluoromethyl)pyrido[3,2-d]pyrimidin-2-yl)phenyl)-8-oxo-5,6,7,8-tetrahydro-1H-pyrazolo[3,4-f][1,4]oxazepine-3-carboxylate] | < 200 |
| Cc1cc(-c2ncc3nc(C(F)(F)F)ccc3n2)ccc1N1CCn2nc(CO)c(C)c2C1=O [compound 088, 2-(hydroxymethyl)-3-methyl-5-(2-methyl-4-(6-(trifluoromethyl)-pyrido-[3,2-d]pyrimidin-2-yl)phenyl)-6,7-dihydropyrazolo[1,5-a]pyrazin-4 (5H)-one] | < 200 |
| Cc1cc(-c2ncc3cc(C(F)(F)F)ccc3n2)ccc1N1CCn2nc(OCCO)c(C)c2C1=O [compound 089, 2-(2-hydroxyethoxy)-3-methyl-5-(2-methyl-4-(6-(trifluoromethyl)quinazolin-2-yl)phenyl)-6,7-dihydropyrazolo[1,5-a]pyrazin-4 (5H)-one] | < 200 |
| Cc1cc(-c2ncc3cc(C(F)(F)F)ccc3n2)ccc1N1CC(COCc2ccccc2)n2ncc(C)c2C1=O (centres unmarked) [compound 090, 7-((benzyloxy)methyl)-3-methyl-5-(2-methyl-4-(6-(trifluoromethyl)-quinazolin-2-yl)phenyl)-6,7-dihydropyrazolo[1,5-a]pyrazin-4 (5H)-one] | < 200 |
| Cc1cc(-c2ncc3cc(C(F)(F)F)ccc3n2)ccc1N1CCn2nc(CN3CCOC(C)C3)c(C)c2C1=O (centres unmarked) [compound 091, 3-methyl-5-(2-methyl-4-(6-(trifluoromethyl)quinazolin-2-yl)phenyl)-2-((2-methylmorpholino)methyl)-6,7-dihydropyrazolo[1,5-a]pyrazin-4 (5H)-one] | < 200 |
| Cc1cc(-c2ncc3cc(C(F)(F)F)ccc3n2)ccc1N1CCn2nc(C(C)O)cc2C1=O (centres unmarked) [compound 092, 2-(1-hydroxyethyl)-5-(2-methyl-4-(6-(trifluoromethyl)quinazolin-2-yl)phenyl)-6,7-dihydropyrazolo[1,5-a]pyrazin-4 (5H)-one] | < 200 |
